ChEMBL document CHEMBL3627651, “Fine tuning of agonistic/antagonistic activity for vitamin D receptor by 22-alkyl chain length of ligands: 22S-Hexyl compound unexpectedly restored agonistic activity” (Bioorg Med Chem, 2015)
Active and inactive are the calls of the source. The rule behind the calls is not given here.

Legend:
[1] = biological target: T1, Vitamin D3 receptor (Homo sapiens) (UniProt P11473); assay: Agonist activity at human VDR transfected in African green monkey COS7 cells assessed as induction of transcriptional activity at 10^-10 to 10^-5 M after 16 hrs by dual luciferase reporter gene assay; type: cell-based; details: COS-7
T1 sequence (whole entry): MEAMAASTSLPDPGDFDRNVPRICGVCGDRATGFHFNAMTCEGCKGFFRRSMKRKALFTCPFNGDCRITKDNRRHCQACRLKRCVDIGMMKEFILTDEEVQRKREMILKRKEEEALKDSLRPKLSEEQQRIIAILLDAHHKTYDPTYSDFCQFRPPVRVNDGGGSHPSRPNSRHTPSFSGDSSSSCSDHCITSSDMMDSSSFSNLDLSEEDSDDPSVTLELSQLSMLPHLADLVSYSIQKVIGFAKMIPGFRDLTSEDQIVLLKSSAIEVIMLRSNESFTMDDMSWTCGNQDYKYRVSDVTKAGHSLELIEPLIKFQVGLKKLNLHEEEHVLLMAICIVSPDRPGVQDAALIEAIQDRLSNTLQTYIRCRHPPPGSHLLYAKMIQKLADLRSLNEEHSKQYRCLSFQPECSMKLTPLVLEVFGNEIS

Vitamin D3 receptor = biological target: T2, Vitamin D3 receptor (Homo sapiens, UniProt P11473); assay: Displacement of [3H]-1alpha,25-dihydroxyvitamin D3 from recombinant human VDR LBD expressed in Escherichia coli BL21 (DE3) pLysS after 16 hrs
T2 sequence (P11473 whole entry): T1 sequence (whole entry)

Activity [1]: Active
IC50 (Vitamin D3 receptor): 0.21 nM
Compound: C=C1[C@H](O)CC(=C/C=C2\CCC[C@]3(C)[C@@H]([C@H](C)[C@H](CCO)CCCCCC)CC[C@@H]23)C[C@H]1O
